According to publication PMC8036738, “Evaluation of Selective COX-2 Inhibition and In Silico Study of Kuwanon Derivatives Isolated from Morus alba” (International Journal of Molecular Sciences, 2021):
Like-named read-outs stand apart in the source and are kept apart here.

Assays:
Type in all cases: biochemical, ovine
[1] = molecular target: T1, COX-1 (Ovis aries, UniProt P05979); assay: in vitro COX-1 enzyme inhibition assay (fluorometric inhibitor screening kit)
T1 construct: purchased BioVision
T1 sequence (P05979 25-600): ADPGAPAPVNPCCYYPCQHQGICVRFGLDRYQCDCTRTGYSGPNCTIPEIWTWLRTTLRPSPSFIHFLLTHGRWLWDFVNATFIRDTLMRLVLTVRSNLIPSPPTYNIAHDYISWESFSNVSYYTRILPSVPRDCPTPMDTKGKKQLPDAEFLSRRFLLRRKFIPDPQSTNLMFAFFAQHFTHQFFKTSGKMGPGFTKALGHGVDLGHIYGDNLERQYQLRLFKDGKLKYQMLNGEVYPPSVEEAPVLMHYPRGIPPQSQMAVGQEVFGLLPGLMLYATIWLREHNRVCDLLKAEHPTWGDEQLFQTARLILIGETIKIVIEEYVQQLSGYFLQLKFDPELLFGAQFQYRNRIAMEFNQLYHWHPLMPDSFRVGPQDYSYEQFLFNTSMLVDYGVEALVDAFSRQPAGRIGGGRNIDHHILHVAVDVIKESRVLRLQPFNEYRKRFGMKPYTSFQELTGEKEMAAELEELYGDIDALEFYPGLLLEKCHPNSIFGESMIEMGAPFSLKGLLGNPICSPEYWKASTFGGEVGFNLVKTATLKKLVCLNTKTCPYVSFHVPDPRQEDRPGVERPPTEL
Procedure: (§1) Dimethyl sulfoxide (DMSO) and COX-1/2 Inhibitor Screening Kit (BioVison, California, CA, USA) were used according to the manufacturer’s instructions. All other reagents used were of the highest purity commercially available. All samples were dissolved in DMSO at a concentration of 100 mM.
(§2) The ability of the test compounds to inhibit COX-1 and COX-2 isoenzymes in vitro was determined using a Biovision fluorometric COX-1/-2 inhibitor screening assay kit. Briefly, the COX assay buffer (75 μL), COX cofactor working solution (2 μL), COX probe solution (1 μL), recombinant COX-1 or COX-2 (1 μL), arachidonic acid/NaOH solution (10 μL), and test solution (10 μL) were mixed in a 96-well plate, and the fluorescence kinetics were measured for 10 min at 25 °C. […] Fluorescence was measured using a microplate spectrophotometer (Bio-Tek, Winooski, VT, USA). Two points (T1 and T2) in the linear range of the plot were used to obtain the corresponding fluorescence values (RFU1 and RFU2). Then, the slope for all samples (S) was calculated by dividing the net ΔRFU (RFU2 − RFU1) values by the time ΔT (T2 − T1) using the following equation: Relative inhibition (%) = ((slope of the enzyme control − slope of S)/(slope of the enzyme control)) × 100.
(§3) The samples were evaluated in triplicates at five different concentrations.

[2] = system: COX-2; assay: in vitro COX-2 enzyme inhibition assay (fluorometric inhibitor screening kit)
Procedure: as §1, §2, §3

[3] = molecular target: T2, COX-2 (Homo sapiens, UniProt P35354); assay: as above
T2 sequence (P35354 18-604): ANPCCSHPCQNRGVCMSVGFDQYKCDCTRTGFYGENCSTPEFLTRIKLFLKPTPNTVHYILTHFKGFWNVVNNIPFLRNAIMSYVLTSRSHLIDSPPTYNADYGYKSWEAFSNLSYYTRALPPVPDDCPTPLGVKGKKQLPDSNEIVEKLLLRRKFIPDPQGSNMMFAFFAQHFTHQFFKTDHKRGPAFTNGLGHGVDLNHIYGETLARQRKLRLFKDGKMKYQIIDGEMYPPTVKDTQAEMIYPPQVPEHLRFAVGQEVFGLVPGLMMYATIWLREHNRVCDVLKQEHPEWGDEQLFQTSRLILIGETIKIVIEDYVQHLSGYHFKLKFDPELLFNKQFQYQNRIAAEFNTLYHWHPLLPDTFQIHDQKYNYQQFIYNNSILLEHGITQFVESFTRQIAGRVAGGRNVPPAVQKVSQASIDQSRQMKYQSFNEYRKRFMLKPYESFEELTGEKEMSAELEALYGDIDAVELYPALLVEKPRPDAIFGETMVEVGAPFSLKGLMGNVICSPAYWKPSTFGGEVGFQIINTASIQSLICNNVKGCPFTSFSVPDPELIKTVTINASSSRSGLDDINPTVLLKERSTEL
Procedure: as §1, §2, §3

[4] = triplicates at five concentrations, read-out: IC50 COX-1

IC50 [1] [µM]	COX-2 inhibition activity (in words) [3]	SMILES	IC50 [1, 4] [µM]	SI (selectivity index, COX-1 IC50/COX-2 IC50) [2]
		CC(C)=CCc1c(-c2ccc(O)c3c2OC(C)(C)C=C3)oc2cc(O)cc(O)c2c1=O [Kuwanon A, kuwanon A]	> 100	>7.1
		CC(C)=CCc1c(-c2ccc3c(c2O)C=CC(C)(C)O3)oc2cc(O)cc(O)c2c1=O [Kuwanon B, kuwanon B]	36	1.3
67		CC(C)=CCc1c(-c2ccc(O)cc2O)oc2c(CC=C(C)C)c(O)cc(O)c2c1=O [Kuwanon C, kuwanon C]		
		CC(C)=CCC/C(C)=C/Cc1cc(C2CC(=O)c3c(O)cc(O)cc3O2)c(O)cc1O (stereo not shown) [Kuwanon E, kuwanon E]	46	1.4
	no COX-2 inhibition activity	CC(C)=CCc1c(-c2ccc(O)cc2O)oc2c(C3C=C(C)CC(c4ccc(O)cc4O)C3C(=O)c3ccc(O)cc3O)c(O)cc(O)c2c1=O (stereo not shown) [Kuwanon G, kuwanon G]	> 100	
		CC(C)=CCc1c(O)ccc(C(=O)C2C(c3c(O)cc(O)c4c(=O)c(CC=C(C)C)c(-c5ccc(O)cc5O)oc34)C=C(C)CC2c2ccc(O)cc2O)c1O (stereo not shown) [Kuwanon H, kuwanon H]	37	
